Data on 2 compounds can be found in patent US20240390356A1, “HALOPERIDOL FOR USE IN THE TREATMENT OF SPINAL MUSCULAR ATROPHY” (UNIVERSITAT DE VALÈNCIA, priority 2021, published 2024).

Several values for one entry are separate records, joined by “and”; a condition that tells them apart may be missing. Equal values may be shown once.

The subject of data set [1] is myoblasts derived from SMA type II patients (KM1150SMAII7PV). Nature of the data set: Fusion index of immortalized myoblasts derived from SMA type II patients. The format is cell-based, human. Particulars: 72 h, healthy myoblasts about 68%, patient myoblasts 50%.
Procedure: Fusion index of immortalized myoblasts derived from patients with SMA type II. […] Healthy (control; abbreviated as CON) and solvent-treated 25 SMA myoblasts (0.5% DMSO) were used to establish a difference in the differentiation process. Risdiplam at 1 μM was used as a positive control. Nuclei were labeled with 4′,6-diamidino-2-phenylindole (DAPI) and myoblasts were detected using an anti-Desmin antibody. Multinuclear myotubes are marked with white arrows. The fusion index of DMSO-treated healthy and SMA differentiated myoblasts, and compound-treated SMA myoblasts, was calculated. Data were collected after analysis of at least 100 cells and statistics were calculated using Student's t-test (*p<0.05, **p<0.01, ***p<0.001).
For myoblast immunostaining, 40,000 cells were seeded in a 24-well plate (previously covered with collagen) with 400 μl of KMEM medium and incubated overnight. The following day the medium was changed for the DMEM Glutamax 4.5 g (Gibco) differentiation medium supplemented with 2% horse serum (Sigma); penicillin (100 U/ml) and streptomycin (100 mg/ml) [1% P/S; Gibco], gentamicin (50 μg/ml; Sigma) and insulin (10 μg/ml; Sigma). […] The cells were incubated for 72 h with the compounds and fixed in 4% paraformaldehyde for 10 minutes. All cell cultures were incubated at 37° C. with 5% CO2.
Nuclei were stained with DAPI. […]
For another data set, the system named is SMN protein. Nature of the data set: SMN protein levels by Western blotting in fibroblasts derived from SMA type II patients. It counts as cell-based, human. Particulars: 72 h, compared to 0.5% DMSO, single samples. On the procedure: (§1) Fibroblasts derived from SMA patients (GM03813; Coriell Cell Repositories) were grown at 37° C. in cell culture bottles with Dulbecco's Modified Eagle Medium (DMEM; Gibco) and […] glucose. The medium was supplemented with penicillin (100 U/ml) and streptomycin ([…]) [1% P/S; Gibco] and 10% inactivated fetal bovine serum (FBS; Gibco).
(§2) For RNA extraction 400,000 GM03813 fibroblasts were seeded in 60 mm culture dishes in 4 ml of supplemented DMEM medium. The following day the medium was changed, and the candidate compound was added at its maximum non-toxic concentration. The cells were incubated for 48 hours and then washed with 1× PBS and collected in sterile 1.5 ml tubes. The same was done for the evaluation of the effect of haloperidol on the level of SMN protein (example 2) with the difference that 1,000,000 fibroblasts were used in a 100 mm cell culture plate and that the cells were collected after […] with a RIPA protein extraction buffer supplemented with a protease inhibitor cocktail (cOmplete; Roche).
Fibroblasts derived from SMA type Il patients were incubated with haloperidol at three concentrations for 72 h. 10 μg of protein extracted from cells treated with haloperidol were separated by electrophoresis with acrylamide/bis-acrylamide gels SDS-PAGE with the Mini-protean Electrophoresis System (Bio-Rad). After electrophoresis was carried out, the proteins were transferred to a nitrocellulose membrane (GE Healthcare) using a semi-dry electro-transfer system (Bio-Rad) for one hour with a constant voltage of 15 V. The membranes were incubated with a blocking solution (5% skim milk in PBST, 1× PBS, 0.1% Tween 20) for at least 1 h at room temperature. […]
Chemiluminescence was detected using SuperSignal West Pico Sensitivity Substrate (Pierce) and acquired with ImageQuant LAS 4000 (GE Healthcare). […] Statistical significance was calculated using the Student's t-test (* p<0.05, ** p<0.01, *** p<0.001).
On the technique in general: Immunoblotting shows a protein as a band on a membrane.

The subject of data set [2] is delta 7 SMA mice. Nature of the data set: NMJ innervation of quadriceps muscles in delta 7 SMA mice. Particulars: mean ± SEM, sham 33.75±1.31%. The format is in vivo.
The next data set has as its system SMN2 FL transcript. Nature of the data set: qPCR quantification of SMN2 full length (FL) transcript in SMA fibroblasts. The format is cell-based, human. Also on record: key to SMN2 FL isoform levels: relative expression (2^-ΔΔCt), normalized to reference gene. Particulars: for SMN2 FL isoform levels: 48 hours, GM03813 fibroblasts, normalized to GAPDH, each of 3 samples. The method, then: as §1, §2
(§3) Extraction of RNA from cells was carried out with ReliaPrep™ RNA Cell Miniprep System (Promega), following the manufacturer's instructions. […] RNA concentration and salt contamination were measured with the NanoDrop spectrophotometer (ThermoFisher). The samples were stored at −80° C. […] of total RNA was retrotranscribed using SuperScript III retrotranscriptase (Invitrogen) following the manufacturer's instructions. Genomic DNA contamination was monitored in the RNA samples without the addition of retrotranscriptase.
(§4) For the quantification of the SMN2 full length (FL) and SMN2 without exon 7 (Δ7) transcripts, qPCR Probe Mix (Solis Biodyne) was used. The reaction was carried out in a multiplex manner, in which the signal from the SMN2 and GAPDH probe was read in a single reaction. 10 ng of cDNA was used as a standard and the concentration of both probes was 250 nM.
(§5) Primer sets for detection of SMN2 FL or Δ7 isoforms were used at a final concentration of 500 nM while the concentration of the primer set used for GAPDH was 150 nM. All reactions were carried out using a Step-One Real-Time PCR thermocycler (Applied Biosystems). In all cases, the experiment included 3 biological samples and three technical replicates for each sample. Expression levels were normalized to the reference gene using a 2-^ΔΔCt method. Primers were obtained from Naryshkin, N. A. et al. Science (2014) 345, 688-693.
(§6) The selected SMA fibroblast line has 3 copies of the SMN2 gene and homozygous deletion of Ex7-Ex8 in SMN1 and therefore only SMN2 gene transcripts were measured. The conditions for cell cultures and extraction protocols are described in Example 1.
On the technique in general: In qPCR the cycle at which signal appears reflects the starting amount.

A further data set has as its system SMA Δ7 mice. Nature of the data set: Body weight and behavioral motor tests in SMA Δ7 mice. It counts as in vivo. On the procedure: FIG. 4. Effect of Haloperidol treatment on weight and motor performances of SMN Δ7 mice. […] VHL (vehicle, 0.9% saline solution with 2% DMSO) n=8, HALO (haloperidol) n=5. Results are expressed as mean±SEM (two-way ANOVA, * p≤0.05; ** p≤0.01; *** p≤0.001; **** p≤0.0001).
(§7) The efficacy of Haloperidol was then tested (University of Turin, Boido et al.) in SMA Δ7 mice (purchased from Jackson Laboratory, Maine, USA; stock number 005025). This triple mutant mouse harbors two transgenic alleles and a single targeted mutant. The Tg(SMN2*delta7)4299Ahmb allele consists of a SMN cDNA lacking exon 7 whereas the Tg(SMN2)89Ahmb allele consists of the entire human SMN2 gene. […] At birth, triple mutants are noticeably smaller than normal littermates; by day 5, signs of muscle weakness appear and become progressively more pronounced over the following week as the mice display an abnormal gait, shakiness in the hind limbs and a tendency to fall over. Mean survival is approximately 13 days.
(§8) Treated SMA mice subcutaneously received 0.5 mg/Kg Haloperidol, dissolved in 2% DMSO in saline solution (HALO group), whereas control mice received an equal amount of saline solution with 2% DMSO (VHL group). Haloperidol or saline solution were daily administered, from P2 (postnatal day 2) to P12 (day of sacrifice).
During the whole period, the animals underwent a number of behavioral motor tests: tail suspension test, righting reflex, hindlimb suspension test, negative geotaxis (El-Khodor et al. 2008, Boido et al. 2018). Mice were evaluated daily starting from P2 for body weight and behavioral performances: • Tail suspension test (self-clasping): pups were suspended by the tail for 15 s, and their hind-limb posture was scored in a scale from 4 (normal) to 0 (clasping); • Righting reflex: pups were placed on their backs on a flat surface; their success or failure to reposition themselves dorsal side up was assessed over a 30 s period; • Negative geotaxis test: starting from P4, pups we placed on an inclined grid with the mouse head facing down (cut off: max 60 s).

Data set [3] concerns delta 7 SMA mice. Nature of the data set: Muscular fiber morphology of quadriceps in delta 7 SMA mice. The format is in vivo. Particulars: P12, 10 days at 0.5 mg/kg, versus sham. On the procedure:
FIG. 9. The effect of haloperidol on muscular fiber morphology in the skeletal muscles of delta 7 mice. Comparison of quadriceps fiber morphology between sham (0.9% saline solution with 2% DMSO) and haloperidol-treated delta 7 SMA mice at P12. The measurements of the muscle fiber area (A), perimeter (B), and maximum and minimum Feret's diameter of muscle fibers (C). At least 100 fibers were analyzed from each animal; the results are shown as the averages obtained from the individual animals.
We first performed morphological analyses of the H/E-stained quadriceps muscles from mice at postnatal day 12 (P12) after 10 days of treatment with haloperidol at 0.5 mg/kg and compared it to mice treated with sham. Specifically, for the morphological analysis of quadriceps skeletal muscle sections were stained with H/E, as previously described (Valsecchi et al. (2015); Rindt et al. (2015)). To morphologically evaluate mean fiber area, perimeter, minimum and maximum Feret's diameter, more than 100 fibers for each animal were drawn with Neurolucida software (MicroBrightField Inc.) and a computer-assisted microscope (Nikon Eclipse E600 microscope). Data were obtained by the associated data analysis software NeuroExplorer (MicroBrightField): we then averaged the means obtained from single animals. Images of skeletal muscles fibers were acquired with Zeiss Axioscan Z.1 digital slide scanner microscope (Carl Zeiss AG).

The subject of another data set is SMN2 Δ7 transcript. Nature of the data set: qPCR quantification of SMN2 without exon 7 (Δ7) transcript in SMA fibroblasts. The format is cell-based, human. Also on record: key: relative expression (2^-ΔΔCt), normalized to reference gene. Particulars: 48 hours, GM03813 fibroblasts, normalized to GAPDH, each of 3 samples. On the procedure:
as §1, §2, §3, §4, §5, §6

The subject of data set [4] is SMA motoneurons derived from hiPSCs. Nature of the data set: Survival rate of hiPSC-derived SMA motoneurons (ISL1-positive cells). Particulars: 10 days of treatment. The format is cell-based, human.
Procedure: (B) SMA MNs survival rate analysis after 10 days of treatment at a range of concentrations. […] Kenpaullone (Ken) at 10 μM was used as as positive control in those experiments.
For spinal motor neurons (MNs) differentiation from hiPSCs, we used a previously reported protocol [Maury et al., 2015]. HiPSC were incubated in suspension in a neural induction medium containing DMEM/F12 and Neurobasal medium supplemented with B27 (Life Technologies), N2 Supplement (Life Technologies), Pen-Strep 0.1%, β-Mercaptoethanol (β-ME) 0.1% (Life Technologies), Ascorbic Acid (0.5 μM, Sigma-Aldrich), Chir99021 (3 μM, Stemgent), SB431542 (20 μM, Tocris), LDN 193189 (0.2 μM, Stemgent) and Y-27632 (10 μM, Stemcell) at a density of 0.2×10^6 cells/ml in T25 flask or 0.25×10^6 cells/ml in spinner flask. After 2 days, caudalization of the neural progenitors was obtained by addition of retinoic acid (RA 0.1 μM) and smoothened agonist (SAG, 0.5 μM). After 1 week in suspension, brain-derived neurotrophic factor (BDNF, 10 ng/ml), glial-derived neurotrophic factor (GDNF, 10 ng/ml), and N-[N-(3,5-Difluorophenacetyl)-L-alanyl]-S-phenylglycine t-butyl ester (DAPT, 10 nM) were added in the medium without SB431542 and LDN193189. Between day 10 and 14, MN progenitors are converted into MNs. […]
The survival of MNs was determined by quantifying the number of ISL1-positive cells in each condition.
The next data set has as its system SMN. Nature of the data set: SMN expression by Western Blot in tissues of SMA Δ7 mice at P12. It counts as in vivo. Particulars: P12, 0.5 mg/Kg s.c. daily. The method, then: FIG. 5. Analysis of SMN expression by Western Blot.
as §7, §8
At P12, Halo and VHL animals were sacrificed, and fresh spinal cords and some skeletal muscles (diaphragm, quadriceps, and gastrocnemius) were rapidly dissected. We then verified the effect of Haloperidol on SMN expression on these samples. Tissues were homogenized on ice using a pestle homogenizer in radioimmunoprecipitation assay buffer (RIPA lysis buffer) (Merck Life Sciences) supplemented with 1 mM PMSF, 1 mM DTT, 2 mM sodium orthovanadate (ThermoFisher Scientific) and 1× cOmplete™ Protease Inhibitor Cocktail (Merck Life Sciences). Sample homogenates were incubated on ice for 20 min before being centrifuged for the insoluble material separation at 14,000×g for 20 min at 4° C. Total protein concentration was assayed on supernatants using Bradford reagent (Bio-Rad). Protein denaturation was performed with NuPAGER LDS Sample Buffer supplemented with NuPAGE® Sample Reducing Agent (ThermoFisher Scientific), by heating at 95° C. for 5 min. SDS-PAGE and transfer were performed on 4-20% Mini-PROTEAN® TGX™ Precast Protein Gels and Trans-Blot® Turbo™ mini nitrocellulose membranes using a Trans-Blot® Turbo™ transfer System (Bio-Rad), respectively. Nonspecific binding sites were blocked using 5% nonfat dried milk in PBS-0.2% Tween-20 (Merck Life Sciences) (PBS-T) for 1 h at RT under shaking. […] Immunolabeling was detected with Clarity™ Western ECL Blotting Substrates (Bio-Rad) using the ChemiDoc™ imaging system (Bio-Rad). Densitometric quantitation of bands was performed with Fiji (Image J, NIH).

The test system of data set [5] is co-culture of SMA type I motoneurons and SMA type I myoblasts. Nature of the data set: Motoneurons and myoblasts co-culture (MN survival, myotube area). The format is cell-based, human. The following applies: treatment every 3 days for 7 days, versus non-treated controls.
Source text: SMA type I (SMA) or healthy motoneurons (MN) derived from induced pluripotent stem cells were co-cultured with SMA type I or healthy myoblasts differentiated into myotubes. […] (B) Analysis of SMA myotubes area compared to the same controls as above. […] Myotubes were marked using MF20 marker (dark green), MNs were marked with ISL1 (red), acetylcholine receptors were marked with AChR (light green) and cell nuclei were stained with Hoechst (blue).
Primary cells were isolated from skeletal muscle as described previously (Chaouch et al. 2009). These cells were expanded and differentiated as previously described. Briefly, primary and immortalized myoblasts were expanded in a mix of 199 medium/Dulbecco modified Eagles minimal essential medium (1:4 ratio) supplemented with 20% fetal bovine serum (FBS), 25 μg/mL fetuin, 0.5 ng/ml basic fibroblast growth factor, 5 ng/ml epidermal growth factor, 5 μg/mL insulin. Cells were then cultivated in a growth medium consisting of DMEM-F12 glutamax (Life Technologies) supplemented with 20% FBS (Sigma-Aldrich) and 0.1% penicillin/steptomycin (Life Technologies). Myogenic differentiation was induced by switching growth medium to DMEM supplemented with 2% horse serum (Life Technologies).
For co-culture, spinal MNs must be differentiated from hiPSC as described previously, but the embryoid bodies are dissociated at day 14 of differentiation and frozen. […]
Setting [6] is: 0.5 mg/Kg subcutaneously daily P2 to P12, versus VHL.

For the compound `Cc1cn2nc(-c3cc(=O)n4cc(N5CCNC6(CC6)C5)ccc4n3)cc(C)c2n1` [risdiplam], the fusion index in [1] (1 μM (positive control)) is given as 66.7%.
The compound `O=C(CCCN1CCC(O)(c2ccc(Cl)cc2)CC1)c1ccc(F)cc1` [haloperidol] gave a fusion index in data set [1] (2.5 μM) of 66.7%. Also, the SMN protein levels was 1.132 and 1.751 and 1.745 in the data set with SMN protein (25 μM); 2.265 and 2.211 and 2.469 in the data set on SMN protein (37.5 μM); 2.413 and 2.453 and 2.614 in the data set with SMN protein (50 μM). In addition, the denervated endplates in the data set with delta 7 SMA mice [2] worked out at 9.50±1.50%. The “SMN2 FL isoform levels” value with SMN2 FL transcript (10 μM) was 1.10 and 1.03 and 1.06; in the data set on SMN2 FL transcript (25 μM), 1.15 and 1.37 and 1.07; with SMN2 FL transcript (37.5 μM), 1.32 and 1.47 and 1.51; in the data set with SMN2 FL transcript (50 μM), 2.54 and 2.11 and 2.33. The “amount of FL SMN2 transcript” value in the data set on SMN2 FL transcript (at the highest concentration) is on record as “doubled”. In the data set with SMA Δ7 mice (setting [6]), the body weight result is reported as “significant weight increase”. The negative geotaxis test entry with SMA Δ7 mice (setting [6]) was “improved motor performances”. Moreover, the righting reflex test result with SMA Δ7 mice (setting [6]) is given as “improved motor performances”. Moreover, the tail suspension test result in the data set on SMA Δ7 mice (setting [6]) is recorded as “improved motor performances”. In the data set with SMA Δ7 mice (murine SMA model, haloperidol administration), the “side effects (behavioral changes or sedation phenotypes)” value was “not associated with any conspicuously deleterious or undesirable side effects”. In the data set on delta 7 SMA mice [3], the “increase in Max Feret's diameter” value is given as “+40%”. In addition, in the data set with delta 7 SMA mice [3], the “increase in fiber area” value is listed as “+104%”. Also, the “increase in fiber perimeter” value in the data set with delta 7 SMA mice [3] is “+43%”. Besides, the “increase in min Feret's diameter” value with delta 7 SMA mice [3] is recorded as “+49%”. Further, the “SMN2 Δ7 isoform levels” value with SMN2 Δ7 transcript (10 μM) is 0.90 and 0.89; in the data set with SMN2 Δ7 transcript (25 μM), 1.00 and 1.06 and 1.04; in the data set with SMN2 Δ7 transcript (37.5 μM), 0.96 and 1.01 and 1.03; with SMN2 Δ7 transcript (50 μM), 1.89 and 1.23. The “SMA motoneurons survival rate” value in data set [4] (0.32 μM) is “almost completely rescue”. Moreover, in [4] (versus kenpaullone at 10 μM), the “SMA motoneurons survival rate compared with positive control” value is recorded as “more efficient than the positive control kenpaullone”. Also, the “SMN expression increase compared to VHL” value in the data set with SMN (diaphragm) amounted to 23%; in the data set on SMN (gastrocnemius), 102%; in the data set with SMN (quadriceps) it was 123%; in the data set on SMN (spinal cord), 58%. Besides, the “area of myotubes in co-culture” value in [5] was “increases the area of myotubes”. The “survival rate of SMA MNs in co-culture” value in [5] is recorded as “increases the survival rate of SMA MNs”.
